Columns and labels:
BT474 = assay: Cell culture and cytotoxicity assay (CTG), BT474; format: cell-based; conditions: Homo sapiens, BT-474, BT474, exposure 96 hours
Protocol: (§1) The assayed compounds each was dissolved in DMSO with a final concentration of 10 mM or 40 mM and stored at −20° C. Tumor cell lines A549 (7,000 cells/well), BT474 (12,000 cells/well), MDA-MB-468 (12,000 cells/well), and HCC1937 (6,000 cells/well) were seeded on 96-well plates. And the cells were pre-incubated at 37° C./5% CO2 for 24 hours. The cells were exposed to different concentrations of the assay compounds (from 400 μM to 782 nM, from 200 μM to 391 nM, from 100 μM to 196 nM, and from 50 μM to 98 nM) for the following time:
(§2) After incubation, 100 μL from each well was discarded and CTG base (Proega, G7571, 50 μL) was added and the mixture was agitated for 2 minutes. The mixtures were stored in a dark room for 10 minutes and the viability was analyzed with Multiskan microplate reader.

HCC1937 = assay: Cell culture and cytotoxicity assay (CTG), HCC1937; format: cell-based; conditions: Homo sapiens, HCC1937, exposure 72 hours
Protocol: as §1, §2

MDA-MB-468 = assay: Cell culture and cytotoxicity assay (CTG), MDA-MB-468; format: cell-based, human; conditions: Homo sapiens; MDA-MB-468, exposure 72 hours, CTG
Protocol: as §1, §2

MDA-MB-468 cell line = assay: Anti-tumor activity against MDA-MB-468 cell line (CCK-8 test); format: cell-based; conditions: Homo sapiens, MDA-MB-468, 72 h
Protocol: A cryo tube was removed from liquid nitrogen. As quickly as possible, the cells were thawed by placing the vial in a 37° C. water bath and gently shaking the vials. The cells were transferred to medium tube, which containing 5 mL medium, and were centrifuged at 1000 rpm for 6 min. The supernatant containing dead cells and cell debris was discarded. 1 mL of pre-warmed medium with 10% FBS was add and the solution was re-suspended. The plate was placed in 37° C. and 5% CO2 incubator. The medium was changed next day.
Cells in logarithmic growth stage were taken and culture medium was discarded. 1 mL 0.25% trypsin solution was added for twice. The trypsin solution was removed and the 0.5 ml 0.25% trypsin solution was added to the cell flask. The plate was placed in 37° C. and 5% CO2 incubator for a few minutes until the cells recovered. 1 mL medium was added to stop digestion. The liquid was transferred by pipette for experiment.
the cells were suspended and the medium was discarded. 1 mL 0.25% trypsin solution was added for twice and the trypsin digestion was centrifuged. The cells were suspended with the culture medium, count and adjusted to the appropriate concentration.
The cell suspension was added to the 96-well plate with a volume of 100 uL per well, as shown in Tab. 5, and was placed in 37° C., 5% CO2 incubator overnight.
Preparation of Compounds Working Solution.
The test compounds were dissolved in DMSO at 10 mM with sterile filter (0.22 um, nelon, JET). After filtering, the solution were continuously diluted by three times with DMSO. A total of six concentration were prepared, as shown below.
6 uL compound solution was added to 594 uL medium and the solution was added to 96-well plate as shown and cultured for 72 h in CO2 incubator.
A CCK-8 solution was prepared according to the instructions and the 96-well plate was taken out and the original medium discarded. 100 uL cck-8 solution was added to each well in the 96-well plate. Photoabsorption data were read by TECAN enzyme marker after a period of time.
IC (%)=[Ac-As]/[Ac-Ab]*100% • As: Experimental well (containing culture medium, cell, CCK-8 and compound); • Ac: Controlled well (containing culture medium, cell and CCK-8); • Ab: Blank well (Only containing medium and CCK-8).

[1] = test system: MDA-MB-468 cells (human breast cancer) implanted in BALB/c-nu mice; assay: In vivo xenograft study, MDA-MB-468, tumor sizes; conditions: MDA-MB-468 xenograft in BALB/c-nu mice, FIGS. 2 and 4
Protocol: (§3) MDA-MB-468 cells (human breast cancer) in its log growth phase were implanted in BALB/c-nu mice. When the tumor volume was approximately 50-150 mm^3, the mice were randomized into four groups, each include 8 mice. The four groups were treated with vehicle, Ref. 1, 4f, and Ref. 2, respectively, and the tumor sizes were measured two to three times each week and the mice were also weighted.

A549 = assay: Cell culture and cytotoxicity assay (CTG), A549; format: cell-based; conditions: Homo sapiens, A549, exposure 72 hours
Protocol: as §1, §2

[2] = In vivo xenograft study, MDA-MB-468, mice weights; conditions: MDA-MB-468 xenograft in BALB/c-nu mice, FIGS. 3 and 5
Protocol: as §3

[3] = In vivo mouse model, MDA-MB-453, mice weights; conditions: MDA-MB-453 mouse model, FIG. 7, dose of this group not given
Description: MDA-MB-453 cells (human breast cancer) were also studied in a mouse model. […] FIG. 7.

[4] = In vivo mouse model, Hep3B, mice weights; conditions: FIG. 9, dose of this group not given
Description: Hep3B cells (human liver cancer) were also studied in a mouse model. […] FIG. 9.

Row | SMILES | IC50 (BT474) [nM] | IC50 (MDA-MB-468) [nM] | IC50 (MDA-MB-468 cell line) [µM] | further results
1 | Cc1ccc(S(=O)(=O)Nc2nc3ccccc3nc2Nc2ccc3nsnc3c2)c(F)c1 [Compound 4, N-[3-(benzo[1,2,5]thiadiazol-5-ylamino)-quinoxalin-2-yl]-2-fluoro-4-methyl-benzenesulfonamide] | > 50000 | 4250 |  | IC50 (HCC1937): 114000 nM
2 | O=S(=O)(Nc1nc2ccccc2nc1Nc1ccc2nsnc2c1)c1ccc(F)c(F)c1 [Compound 7] |  |  | 0.469 | 
3 | O=S(=O)(Nc1nc2ccccc2nc1Nc1ccc2nsnc2c1)c1ccc(Br)c(F)c1 [Compound 8] |  |  | 0.811 | 
4 | COc1ccc(S(=O)(=O)Nc2nc3ccccc3nc2Nc2ccc3nsnc3c2)cc1F [Compound 9] |  |  | 1.4 | 
5 | CCNc1ccc(S(=O)(=O)Nc2nc3ccccc3nc2Nc2ccc3nsnc3c2)cc1F [Compound 10] |  |  | 7.09 | 
6 | Cc1ccc(S(=O)(=O)Nc2nc3ccccc3nc2Nc2ccc3nsnc3c2)cc1 [Ref. 1, reference compound] | 28200 | 2060 | 2.67 | anticancer activity (tumor sizes) versus vehicle [1]: no significant difference; IC50 (A549): > 50000 nM; weight changes of mice [2]: no significant weight changes
7 | COc1ccc(Cl)c(Nc2nc3ccccc3nc2NS(=O)(=O)c2cccc(NC(=O)C(C)(C)N)c2)c1 [Ref. 2, reference compound] | 25000 to 50000 | 12500 to 25000 | 4.91 | anticancer activity (tumor sizes) versus vehicle [1]: no significant difference; weight changes [3]: no difference in weight changes; IC50 (A549): 25000 to 50000 nM; weight changes of mice [2]: no significant weight changes; weight changes [4]: no difference in weight changes; IC50 (HCC1937): 50000 to 100000 nM
